Earlier results, collected in patent publication US8207376B2, “Method for producing amino acid phosphates” (priority 2006, dated 2012).

Tests used:
[1] = heating; known property
[2] = as reported in JP-A-2006-182753
[3] = as reported in JP-A-2006-182753; remark: listed apart in the source

| SMILES | temperature at which it is completely degraded [1] [°C] | permeability through the skin and the like [2] | stimulative nature against the skin and tongue [3] |
| --- | --- | --- | --- |
| Cl.NCC(=O)CCC(=O)O [δ-aminolevulinic acid hydrochloride] | ≥ 156 | – | – |
| NCC(=O)CCC(=O)O.O=P(O)(O)O [δ-aminolevulinic acid phosphate] | – | excellent | low stimulative nature against the skin and tongue |
